# ChEMBL document CHEMBL1201862, “PubChem BioAssay data set” (2004)
# Counter-ions that a name gives are not always drawn.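 Five concentrations, 48 hours, 96-well plates. At the GI50, growth is halved.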 Activity calls are given as the source filed them. Rule as the data show it: active = GI50 up to about 1.1 µM and inactive = higher. Residues, ends and D or L forms follow the SMILES beside them. *: point of attachment. Tfa = O=C(C(F)(F)F)*
# Columns and labels:
# Experiment in all cases: NCI-60 cell line screen, 48 h
# SF-539 = test system: SF-539
# SN12C = test system: SN12C
# K562 = test system: K562
# NCI/ADR-RES = test system: NCI/ADR-RES
# PC-3 = test system: PC-3
# A549 = test system: A549
# A498 = test system: A498
# MOLT-4 = test system: MOLT-4
# 786-0 = test system: 786-0
# UO-31 = test system: UO-31
# HCT-116 = test system: HCT-116
# UACC-257 = test system: UACC-257
# T47D = test system: T47D
# MDA-N = test system: MDA-N
# DU-145 = test system: DU-145
# U-251 = test system: U-251
# CAKI-1 = test system: CAKI-1
# SK-MEL-5 = test system: SK-MEL-5
# HOP-92 = test system: HOP-92
# NCI-H522 = test system: NCI-H522
SMILES,GI50 (SF-539),GI50 (SN12C),GI50 (K562),GI50 (NCI/ADR-RES),GI50 (PC-3),GI50 (A549),GI50 (A498),GI50 (MOLT-4),GI50 (786-0),GI50 (UO-31),GI50 (HCT-116),GI50 (UACC-257),GI50 (T47D),GI50 (MDA-N),GI50 (DU-145),GI50 (U-251),GI50 (CAKI-1),GI50 (SK-MEL-5),GI50 (HOP-92),GI50 (NCI-H522)
CC(C)(C)OC/C=C(\Br)CO,> 100 µM (inactive),> 100 µM (inactive),> 100 µM (inactive),> 100 µM (inactive),> 100 µM (inactive),> 100 µM (inactive),> 100 µM (inactive),> 100 µM (inactive),> 100 µM (inactive),> 100 µM (inactive),> 100 µM (inactive),> 100 µM (inactive),> 100 µM (inactive),> 100 µM (inactive),> 100 µM (inactive),> 100 µM (inactive),> 100 µM (inactive),,,
COc1ccccc1C1CC(=O)CC(c2ccccc2OC)C12C(=O)NC(=S)NC2=O (centres undefined),81.8 µM (inactive),65.8 µM (inactive),47.6 µM (inactive),> 100 µM (inactive),90.6 µM (inactive),,,35.7 µM (inactive),> 100 µM (inactive),87.9 µM (inactive),80.5 µM (inactive),88.3 µM (inactive),58.5 µM (inactive),18.2 µM (inactive),57.9 µM (inactive),> 100 µM (inactive),68.9 µM (inactive),50.2 µM (inactive),43.3 µM (inactive),51.3 µM (inactive)
O=C(O)CC(NC(=O)C(F)(F)F)C(=O)NC(Cc1ccc(O)cc1)C(=O)O (stereo not drawn) (Tfa-Asp-Tyr-OH; configuration not given here),> 50 µM (inactive),> 50 µM (inactive),> 50 µM (inactive),> 50 µM (inactive),> 50 µM (inactive),> 50 µM (inactive),,> 50 µM (inactive),> 50 µM (inactive),> 50 µM (inactive),,> 50 µM (inactive),> 50 µM (inactive),> 50 µM (inactive),> 50 µM (inactive),> 50 µM (inactive),> 50 µM (inactive),> 50 µM (inactive),> 50 µM (inactive),> 50 µM (inactive)
CC1(C)C=[N+]([O-])C(C)(C)N1,> 100 µM (inactive),> 100 µM (inactive),> 100 µM (inactive),> 100 µM (inactive),> 100 µM (inactive),> 100 µM (inactive),,> 100 µM (inactive),> 100 µM (inactive),> 100 µM (inactive),> 100 µM (inactive),> 100 µM (inactive),> 100 µM (inactive),> 100 µM (inactive),> 100 µM (inactive),> 100 µM (inactive),> 100 µM (inactive),> 100 µM (inactive),> 100 µM (inactive),
CCOC(=O)CC[C@@H](NC(=O)c1ccc(NCc2ccc3nc(OC)c(OC)nc3c2)cc1)C(=O)OCC,18.5 µM (inactive),52 µM (inactive),46.8 µM (inactive),> 100 µM (inactive),56.8 µM (inactive),> 100 µM (inactive),,16.6 µM (inactive),59.4 µM (inactive),26.5 µM (inactive),> 100 µM (inactive),15.7 µM (inactive),19.1 µM (inactive),30.1 µM (inactive),58.2 µM (inactive),> 100 µM (inactive),> 83.9 µM (inactive),13.6 µM (inactive),11.4 µM (inactive),19.9 µM (inactive)
Clc1ccc(CCN(CCc2ccc(Cl)c(Cl)c2)CCN2CCCC2)cc1Cl,1.8 µM (inactive),1.87 µM (inactive),2.25 µM (inactive),1.75 µM (inactive),1.57 µM (inactive),1.74 µM (inactive),1.77 µM (inactive),1.79 µM (inactive),1.76 µM (inactive),1.64 µM (inactive),1.69 µM (inactive),1.78 µM (inactive),3.27 µM (inactive),1.87 µM (inactive),2.01 µM (inactive),1.6 µM (inactive),1.64 µM (inactive),1.81 µM (inactive),,1.64 µM (inactive)
COc1ccccc1-n1cnc2c1=NC(C)(C)NC=2C(N)=O,> 100 µM (inactive),> 100 µM (inactive),> 100 µM (inactive),> 100 µM (inactive),> 100 µM (inactive),> 100 µM (inactive),> 100 µM (inactive),,> 100 µM (inactive),,> 100 µM (inactive),> 100 µM (inactive),> 100 µM (inactive),> 100 µM (inactive),> 100 µM (inactive),> 100 µM (inactive),> 100 µM (inactive),> 100 µM (inactive),,> 100 µM (inactive)
CC(=O)c1c(C)[n+]([O-])c2cc(Cl)c(Cl)cc2[n+]1[O-],24.7 µM (inactive),20.2 µM (inactive),19.4 µM (inactive),16.7 µM (inactive),17.7 µM (inactive),19.2 µM (inactive),23.7 µM (inactive),8.22 µM (inactive),27.5 µM (inactive),14.9 µM (inactive),15.6 µM (inactive),17.6 µM (inactive),12.7 µM (inactive),22.6 µM (inactive),23.1 µM (inactive),21.8 µM (inactive),18.7 µM (inactive),11.6 µM (inactive),,12.6 µM (inactive)
CC(C)c1ccc2c(c1)/C(=C1/Nc3ccccc3/C1=N/O)C(=O)N2,,5.22 µM (inactive),4.07 µM (inactive),4.38 µM (inactive),6.64 µM (inactive),6.28 µM (inactive),2.78 µM (inactive),3.3 µM (inactive),4.85 µM (inactive),3.69 µM (inactive),3.76 µM (inactive),12.1 µM (inactive),3.88 µM (inactive),6.73 µM (inactive),6.07 µM (inactive),7.23 µM (inactive),4.29 µM (inactive),3.82 µM (inactive),,4.06 µM (inactive)
CC(=O)Oc1ccc2c(c1OC(C)=O)CCC1C2=CC[C@]2(C)C(=O)CCC12 (some centres undefined),14.2 µM (inactive),14.1 µM (inactive),14 µM (inactive),27.6 µM (inactive),3.24 µM (inactive),16 µM (inactive),,3.3 µM (inactive),2.47 µM (inactive),9.57 µM (inactive),4.92 µM (inactive),25.6 µM (inactive),9.46 µM (inactive),14.2 µM (inactive),15.7 µM (inactive),,6.07 µM (inactive),< 0.01 µM (active),5.15 µM (inactive),1.82 µM (inactive)
O=C1CS(=O)(=O)C(c2cccc(Oc3ccccc3)c2)N1c1cc(Cl)ccc1Cl (centres undefined),21 µM (inactive),20.7 µM (inactive),27.4 µM (inactive),25.7 µM (inactive),14.7 µM (inactive),38.2 µM (inactive),,39.3 µM (inactive),19.2 µM (inactive),20.1 µM (inactive),20.2 µM (inactive),23.1 µM (inactive),15.6 µM (inactive),16.7 µM (inactive),17.9 µM (inactive),15.7 µM (inactive),,15.8 µM (inactive),18.2 µM (inactive),23.7 µM (inactive)
